Reference: ChEMBL document CHEMBL5252541, “Repurposing antipsychotic drugs into antifungal agents: Synergistic combinations of azoles and bromperidol derivatives in the treatment of various fungal infections” (Eur J Med Chem, 2017)

Columns and labels:
Candida albicans [1] = experiment: Partial synergistic antifungal activity against Candida albicans ATCC 10231 assessed as fractional inhibitory concentration index measured for 72 hrs in presence of voriconazole; format: functional
Candida albicans [2] = experiment: Additive antifungal activity against Candida albicans ATCC MYA-2310 assessed as fractional inhibitory concentration index measured for 72 hrs in presence of posaconazole; format: functional
Nakaseomyces glabratus [3] = experiment: Additive antifungal activity against Candida glabrata ATCC 2001 assessed as fractional inhibitory concentration index measured for 72 hrs in presence of voriconazole; format: functional
Candida albicans [4] = experiment: Additive antifungal activity against Candida albicans ATCC MYA-2876 assessed as fractional inhibitory concentration index measured for 72 hrs in presence of posaconazole; format: functional
Candida albicans [5] = experiment: Synergistic antifungal activity against Candida albicans ATCC 64124 assessed as compound MIC measured after 48 hrs in presence of ketoconazole by checkboard based microplate reader analysis; format: functional
Candida albicans [6] = experiment: Synergistic antifungal activity against Candida albicans ATCC 10231 assessed as compound MIC measured after 48 hrs in presence of posaconazole by checkboard based microplate reader analysis; format: functional
Candida albicans [7] = experiment: Synergistic antifungal activity against Candida albicans ATCC 10231 assessed as compound MIC measured after 48 hrs in presence of itraconazole by checkboard based microplate reader analysis; format: functional
Candida albicans [8] = experiment: Additive antifungal activity against Candida albicans ATCC MYA-2310 assessed as fractional inhibitory concentration index measured for 72 hrs in presence of voriconazole; format: functional
Nakaseomyces glabratus [9] = experiment: Additive antifungal activity against Candida glabrata ATCC 2001 assessed as fractional inhibitory concentration index measured for 72 hrs in presence of posaconazole; format: functional
Candida albicans [10] = experiment: Additive antifungal activity against Candida albicans ATCC 64124 assessed as fractional inhibitory concentration index measured for 72 hrs in presence of voriconazole; format: functional
Candida albicans [11] = experiment: Antifungal activity against Candida albicans ATCC MYA-1237 measured after 48 hrs by broth microdilution analysis; format: functional
Candida albicans [12] = experiment: Synergistic antifungal activity against Candida albicans ATCC 10231 assessed as compound MIC measured after 48 hrs in presence of ketoconazole by checkboard based microplate reader analysis; format: functional
Candida albicans [13] = experiment: Additive antifungal activity against Candida albicans ATCC MYA-1237 assessed as fractional inhibitory concentration index measured for 72 hrs in presence of voriconazole; format: functional
Candida albicans [14] = experiment: Synergistic antifungal activity against Candida albicans ATCC 10231 assessed as compound MIC measured after 48 hrs in presence of fluconazole by checkboard based microplate reader analysis; format: functional
Candida albicans [15] = experiment: Additive antifungal activity against Candida albicans ATCC 64124 assessed as fractional inhibitory concentration index measured for 72 hrs in presence of itraconazole; format: functional
Candida albicans [16] = experiment: Antifungal activity against Candida albicans ATCC 10231 measured after 48 hrs by broth microdilution analysis; format: functional
Candida albicans [17] = experiment: Synergistic antifungal activity against Candida albicans ATCC 10231 assessed as compound MIC measured after 48 hrs in presence of voriconazole by checkboard based microplate reader analysis; format: functional
Candida albicans [18] = experiment: Additive antifungal activity against Candida albicans ATCC 64124 assessed as fractional inhibitory concentration index measured for 72 hrs in presence of ketoconazole; format: functional
Candida albicans [19] = experiment: Antifungal activity against Candida albicans ATCC 64124 measured after 48 hrs by broth microdilution analysis; format: functional
Candida albicans [20] = experiment: Additive antifungal activity against Candida albicans ATCC 90819 assessed as fractional inhibitory concentration index measured for 72 hrs in presence of voriconazole; format: functional
Nakaseomyces glabratus [21] = experiment: Antifungal activity against Candida glabrata ATCC 2001 measured after 48 hrs by broth microdilution analysis; format: functional
Candida albicans [22] = experiment: Synergistic antifungal activity against Candida albicans ATCC 64124 assessed as compound MIC measured after 48 hrs in presence of voriconazole by checkboard based microplate reader analysis; format: functional
Candida albicans [23] = experiment: Synergistic antifungal activity against Candida albicans ATCC 64124 assessed as compound MIC measured after 48 hrs in presence of posaconazole by checkboard based microplate reader analysis; format: functional
Candida albicans [24] = experiment: Additive antifungal activity against Candida albicans ATCC 64124 assessed as fractional inhibitory concentration index measured for 72 hrs in presence of fluconazole; format: functional
Aspergillus terreus [25] = experiment: Additive antifungal activity against Aspergillus terreus ATCC MYA-3633 assessed as fractional inhibitory concentration index measured for 72 hrs in presence of voriconazole; format: functional
Aspergillus terreus [26] = experiment: Antifungal activity against Aspergillus terreus ATCC MYA-3633 measured after 48 hrs by broth microdilution analysis; format: functional
Nakaseomyces glabratus [27] = experiment: Synergistic antifungal activity against Candida glabrata ATCC 2001 assessed as fractional inhibitory concentration index measured for 72 hrs in presence of posaconazole; format: functional
Candida albicans [28] = experiment: Additive antifungal activity against Candida albicans ATCC 90819 assessed as fractional inhibitory concentration index measured for 72 hrs in presence of posaconazole; format: functional
Candida albicans [29] = experiment: Additive antifungal activity against Candida albicans MYA-1003 assessed as fractional inhibitory concentration index measured for 72 hrs in presence of voriconazole
Candida albicans [30] = experiment: Antifungal activity against Candida albicans ATCC MYA-1003 measured after 48 hrs by broth microdilution analysis; format: functional
Candida albicans [31] = experiment: Synergistic antifungal activity against Candida albicans ATCC 64124 assessed as compound MIC measured after 48 hrs in presence of itraconazole by checkboard based microplate reader analysis; format: functional
Candida albicans [32] = experiment: Additive antifungal activity against Candida albicans ATCC MYA-2876 assessed as fractional inhibitory concentration index measured for 72 hrs in presence of voriconazole; format: functional
Candida albicans [33] = experiment: Additive antifungal activity against Candida albicans ATCC 10231 assessed as fractional inhibitory concentration index measured for 72 hrs in presence of ketoconazole; format: functional
Candida albicans [34] = experiment: Antifungal activity against Candida albicans ATCC MYA-2310 measured after 48 hrs by broth microdilution analysis; format: functional
Candida albicans [35] = experiment: Additive antifungal activity against Candida albicans ATCC 10231 assessed as fractional inhibitory concentration index measured for 72 hrs in presence of fluconazole; format: functional
Candida albicans [36] = experiment: Antifungal activity against Candida albicans ATCC MYA-2876 measured after 48 hrs by broth microdilution analysis; format: functional
Candida albicans [37] = experiment: Antifungal activity against Candida albicans ATCC 90819 measured after 48 hrs by broth microdilution analysis; format: functional
Candida albicans [38] = experiment: Synergistic antifungal activity against Candida albicans ATCC 64124 assessed as compound MIC measured after 48 hrs in presence of fluconazole by checkboard based microplate reader analysis; format: functional
Candida albicans [39] = experiment: Additive antifungal activity against Candida albicans ATCC 10231 assessed as fractional inhibitory concentration index measured for 72 hrs in presence of itraconazole; format: functional
Candida albicans [40] = experiment: Synergistic antifungal activity against Candida albicans ATCC 64124 assessed as fractional inhibitory concentration index measured for 72 hrs in presence of posaconazole; format: functional
Candida albicans [41] = experiment: Potency index, ratio of fluconazole MIC to test compound MIC for antifungal activity against Candida albicans ATCC 10231 measured after 48 hrs by broth microdilution analysis; format: functional
Candida albicans [42] = experiment: Additive antifungal activity against Candida albicans ATCC MYA-1237 assessed as fractional inhibitory concentration index measured for 72 hrs in presence of posaconazole; format: functional

MIC (Candida albicans [5]): 64 µg/mL | MIC (Candida albicans [6]): > 128 µg/mL | MIC (Candida albicans [7]): > 128 µg/mL | MIC (Candida albicans [11]): > 128 µg/mL | MIC (Candida albicans [12]): > 128 µg/mL | MIC (Candida albicans [14]): > 128 µg/mL | MIC (Candida albicans [16]): > 128 µg/mL | MIC (Candida albicans [17]): 32 µg/mL | MIC (Candida albicans [19]): > 128 µg/mL | MIC (Nakaseomyces glabratus [21]): > 128 µg/mL | MIC (Candida albicans [22]): 128 µg/mL | MIC (Candida albicans [23]): 8 µg/mL | MIC (Aspergillus terreus [26]): > 128 µg/mL | MIC (Candida albicans [30]): > 128 µg/mL | MIC (Candida albicans [31]): > 128 µg/mL | MIC (Candida albicans [34]): > 128 µg/mL | MIC (Candida albicans [36]): > 128 µg/mL | MIC (Candida albicans [37]): > 128 µg/mL | MIC (Candida albicans [38]): > 128 µg/mL
SMILES: COc1ccc(C(=O)CCCN2CCC(O)(c3ccc(Br)cc3)CC2)cc1
fractional inhibitory concentration index (FICI) (Candida albicans [1]): 0.75 | fractional inhibitory concentration index (FICI) (Candida albicans [2]): 2 | fractional inhibitory concentration index (FICI) (Nakaseomyces glabratus [3]): 2 | fractional inhibitory concentration index (FICI) (Candida albicans [4]): 2 | fractional inhibitory concentration index (FICI) (Candida albicans [8]): 2 | fractional inhibitory concentration index (FICI) (Nakaseomyces glabratus [9]): 0.5 | fractional inhibitory concentration index (FICI) (Candida albicans [10]): 1.25 | fractional inhibitory concentration index (FICI) (Candida albicans [13]): 2 | fractional inhibitory concentration index (FICI) (Candida albicans [15]): 2 | fractional inhibitory concentration index (FICI) (Candida albicans [18]): 1 | fractional inhibitory concentration index (FICI) (Candida albicans [20]): 2 | fractional inhibitory concentration index (FICI) (Candida albicans [24]): 2 | fractional inhibitory concentration index (FICI) (Aspergillus terreus [25]): 2 | fractional inhibitory concentration index (FICI) (Nakaseomyces glabratus [27]): 0.51 | fractional inhibitory concentration index (FICI) (Candida albicans [28]): 2 | fractional inhibitory concentration index (FICI) (Candida albicans [29]): 2 | fractional inhibitory concentration index (FICI) (Candida albicans [32]): 2 | fractional inhibitory concentration index (FICI) (Candida albicans [33]): 2 | fractional inhibitory concentration index (FICI) (Candida albicans [35]): 2 | fractional inhibitory concentration index (FICI) (Candida albicans [39]): 2 | fractional inhibitory concentration index (FICI) (Candida albicans [40]): 0.13 | Ratio (Candida albicans [41]): 16 | fractional inhibitory concentration index (FICI) (Candida albicans [42]): 2
